Data from patent US20100137313A1 (ASTRAZENECA AB, priority 2008, published 2010).

Target: S. pneumoniae Topoisomerase IV ATPase (ParE) (Streptococcus pneumoniae serotype 4, UniProt Q59961)
Test: S. pneumoniae Topoisomerase IV ATPase inhibition
Assay type: biochemical
Conditions: values marked * are an average of two or more data points, read-out: % Inh (13 μM) of S. pneumoniae Topoisomerase IV ATPase
Method in brief: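 ParE ATPase (1.25 nM) run with 160 μM ATP and 5 μg/ml sheared salmon sperm DNA in Tris pH 8.0, Mg2+, glycerol, DTT, Brij-35. Phosphate released read by malachite green/molybdate absorbance at 650 nm. IC50 from 10 compound concentrations; DMSO (2%) as 0% and EDTA (20 μM) as 100% inhibition.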

Sequence of S. pneumoniae Topoisomerase IV ATPase (ParE) (Q59961 whole entry): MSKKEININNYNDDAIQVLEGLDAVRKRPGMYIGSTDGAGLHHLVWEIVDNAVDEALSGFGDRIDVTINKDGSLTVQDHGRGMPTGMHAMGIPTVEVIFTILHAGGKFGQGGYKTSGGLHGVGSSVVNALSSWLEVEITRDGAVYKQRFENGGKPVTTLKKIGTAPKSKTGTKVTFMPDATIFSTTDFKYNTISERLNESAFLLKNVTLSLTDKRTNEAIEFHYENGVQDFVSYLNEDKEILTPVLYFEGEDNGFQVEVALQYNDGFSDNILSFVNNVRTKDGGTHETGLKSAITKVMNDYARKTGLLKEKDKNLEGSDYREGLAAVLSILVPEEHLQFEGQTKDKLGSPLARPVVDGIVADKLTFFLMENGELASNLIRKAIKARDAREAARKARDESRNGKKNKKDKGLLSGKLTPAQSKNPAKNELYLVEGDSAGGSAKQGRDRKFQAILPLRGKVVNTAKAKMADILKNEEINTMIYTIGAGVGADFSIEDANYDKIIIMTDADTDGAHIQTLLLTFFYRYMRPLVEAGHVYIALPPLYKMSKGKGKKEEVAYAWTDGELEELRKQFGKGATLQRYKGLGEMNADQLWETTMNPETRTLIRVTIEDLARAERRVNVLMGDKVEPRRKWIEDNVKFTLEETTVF

SMILES	inhibition at 13 µM [%]
Cc1cc(C(F)(F)F)nn1-c1nc(Nc2ccc(F)c(Cl)c2)ncc1-c1c[nH]c(=O)c(C(=O)O)c1 [Example 1094, 5-(2-(3-Chloro-4-fluorophenylamino)-4-(5-methyl-3-(trifluoromethyl)-1H-pyrazol-1-yl)pyrimidin-5-yl)-2-oxo-1,2-dihydropyridine-3-carboxylic acid]	99
COc1cc(Nc2ncc(-c3cc(C(=O)O)c(=O)n(CCS(C)(=O)=O)c3)c(-n3ccc(C(F)(F)F)n3)n2)cc(OC)c1 [Example 1095, 5-(2-(3,5-dimethoxyphenylamino)-4-(3-(trifluoromethyl)-1H-pyrazol-1-yl)pyrimidin-5-yl)-1-(2-(methylsulfonyl)ethyl)-2-oxo-1,2-dihydropyridine-3-carboxylic acid]	100
COc1cc(Nc2ncc(-c3c[nH]c(=O)c(C(=O)O)c3)c(-n3ccc(C(F)(F)F)n3)n2)cc(OC)c1 [Example 1096, 5-(2-(3,5-Dimethoxyphenylamino)-4-(3-(trifluoromethyl)-1H-pyrazol-1-yl)pyrimidin-5-yl)-2-oxo-1,2-dihydropyridine-3-carboxylic acid]	100
COc1cc(Nc2ncc(-c3cc(C(=O)O)c(=O)n(CCS(C)(=O)=O)c3)c(-n3nc(C(F)(F)F)cc3C)n2)cc(OC)c1 [Example 1097, 5-(2-(3,5-Dimethoxyphenylamino)-4-(5-methyl-3-(trifluoromethyl)-1H-pyrazol-1-yl)pyrimidin-5-yl)-1-(2-(methylsulfonyl)ethyl)-2-oxo-1,2-dihydropyridine-3-carboxylic acid]	100
COc1cc(Nc2ncc(-c3c[nH]c(=O)c(C(=O)O)c3)c(-n3nc(C(F)(F)F)cc3C)n2)cc(OC)c1 [Example 1098, 5-(2-(3,5-Dimethoxyphenylamino)-4-(5-methyl-3-(trifluoromethyl)-1H-pyrazol-1-yl)pyrimidin-5-yl)-2-oxo-1,2-dihydropyridine-3-carboxylic acid]	100
O=C(O)CS(=O)(=O)c1cccc(-c2cnc(Nc3ccc(F)c(Cl)c3)nc2-n2ccc(C(F)(F)F)n2)c1 [Example 1099, 2-(3-(2-(3-chloro-4-fluorophenylamino)-4-(3-(trifluoromethyl)-1H-pyrazol-1-yl)pyrimidin-5yl)phenylsulfonyl)acetic acid]	100
CNC(=O)c1cc(-c2cnc(Nc3ccc(F)c(Cl)c3)nc2-n2ccc(C(F)(F)F)n2)cnc1OC [Example 1100, 5-(2-(3-chloro-4-fluorophenylamino)-4-(3-(trifluoromethyl)-1H-pyrazol-1-yl)pyrimidin-5-yl)-2-methoxy-N-methylnicotinamide]	75
CONC(=O)c1cc(-c2cnc(Nc3ccc(F)c(Cl)c3)nc2-n2ccc(C(F)(F)F)n2)cnc1OC [Example 1101, 5-(2-(3-chloro-4-fluorophenylamino)-4-(3-(trifluoromethyl)-1H-pyrazol-1-yl)pyrimidin-5-yl)-N,2-dimethoxynicotinamide]	82
CONC(=O)c1cc(-c2cnc(Nc3ccc(F)c(Cl)c3)nc2-n2nc(C(F)(F)F)cc2C)cnc1OC [Example 1102, 5-(2-(3-chloro-4-fluorophenylamino)-4-(5-methyl-3-(trifluoromethyl)-1H-pyrazol-1-yl)pyrimidin-5-yl)-N,2-dimethoxynicotinamide]	96
CNC(=O)c1cc(-c2cnc(Nc3ccc(F)c(Cl)c3)nc2-n2nc(C(F)(F)F)cc2C)cnc1OC [Example 1103, 5-(2-(3-chloro-4-fluorophenylamino)-4-(5-methyl-3-(trifluoromethyl)-1H-pyrazol-1-yl)pyrimidin-5-yl)-2-methoxy-N-methylnicotinamide]	76
COc1ncc(-c2cnc(Nc3ccc(F)c(Cl)c3)nc2-n2nc(C(F)(F)F)cc2C)cc1C(N)=O [Example 1105, 5-(2-(3-chloro-4-fluorophenylamino)-4-(5-methyl-3-(trifluoromethyl)-1H-pyrazol-1-yl)pyrimidin-5-yl)-2-methoxynicotinamide]	82
COc1ccc(-c2cnc(Nc3ccc(F)c(Cl)c3)nc2-n2ccc(C(F)(F)F)n2)cc1C(N)=O [Example 1106, 5-(2-(3-chloro-4-fluorophenylamino)-4-(3-(trifluoromethyl)-1H-pyrazol-1-yl)pyrimidin-5-yl)-2-methoxybenzamide]	21
CCC(C)Nc1nc(Nc2ccc(F)c(Cl)c2)ncc1-c1cc2ccccc2o1 (stereo not shown) [Example 1108, 5-(1-benzofuran-2-yl)-N′-butan-2-yl-N-(3-chloro-4-fluorophenyl)pyrimidine-2,4-diamine]	18
CCC(C)Nc1nc(Nc2ccc(F)c(Cl)c2)ncc1-c1ccc(OC)c(C(F)(F)F)c1 (stereo not shown) [Example 1109, N′-butan-2-yl-N-(3-chloro-4-fluorophenyl)-5-[4-methoxy-3-(trifluoromethyl)phenyl]pyrimidine-2,4-diamine]	28
CCC(C)Nc1nc(Nc2ccc(F)c(Cl)c2)ncc1-c1ccc(Cl)c(NC(=O)OC(C)(C)C)c1 (stereo not shown) [Example 1110, tert-butyl N-[5-[4-(butan-2-ylamino)-2-[(3-chloro-4-fluorophenyl)amino]pyrimidin-5-yl]-2-chlorophenyl]carbamate]	99
O=C(O)c1ccc(-c2cnc(Nc3ccc(F)c(Cl)c3)nc2-n2ccnc2)s1 [Example 1111, 5-[2-[(3-chloro-4-fluorophenyl)-amino]-4-imidazol-1-ylpyrimidin-5-yl]thiophene-2-carboxylic acid]	88
CCOC(=O)/C=C/c1cccc(-c2cnc(Nc3ccc(F)c(Cl)c3)nc2-n2cccn2)c1 [Example 1112, ethyl (E)-3-[3-[2-[(3-chloro-4-fluorophenyl)amino]-4-pyrazol-1-ylpyrimidin-5-yl]phenyl]prop-2-enoate]	71
Fc1ccc(Nc2ncc(-c3cncnc3)c(-n3ccnc3)n2)cc1Cl [Example 1113, N-(3-chloro-4-fluorophenyl)-4-imidazol-1-yl-5-pyrimidin-5-ylpyrimidin-2-amine]	72
Cc1cc(C(F)(F)F)nn1-c1nc(Nc2ccc(F)c(Cl)c2)ncc1-c1ccc(C(=O)O)s1 [Example 1114, 5-[2-[(3-chloro-4-fluorophenyl)amino]-4-[5-methyl-3-(trifluoromethyl)pyrazol-1-yl]pyrimidin-5-yl]thiophene-2-carboxylic acid]	100
CS(=O)(=O)c1cc(Nc2ncc(-c3cccc(/C=C/C(=O)O)c3)c(-n3ccc(C(F)(F)F)n3)n2)ccc1F [Example 1115, (E)-3-(3-(2-(4-fluoro-3-(methylsulfonyl)phenylamino)-4-(3-(trifluoromethyl)-1H-pyrazol-1-yl)pyrimidin-5-yl)phenyl)acrylic acid]	93
Cc1cc(C(F)(F)F)nn1-c1nc(Nc2cc(F)cc(C#N)c2)ncc1-c1cccc(/C=C/C(=O)O)c1 [Example 1116, (E)-3-(3-(2-(3-cyano-5-fluorophenylamino)-4-(5-methyl-3-(trifluoromethyl)-1H-pyrazol-1-yl)pyrimidin-5-yl)phenyl)acrylic acid]	97
O=C(O)/C=C/c1cccc(-c2cnc(Nc3ccc(F)c(Cl)c3)nc2-n2cccn2)c1 [Example 1120, (E)-3-[3-[2-[(3-chloro-4-fluorophenyl)amino]-4-pyrazol-1-ylpyrimidin-5-yl]phenyl]prop-2-enoic acid]	79
